Blank lines part the entries; values can stand above or below the compound they belong to. The source made the active and inactive calls. The calls are words filed in the database; no cut-off is given here.
Experiments:
[1] = Metabolic stability in mouse liver microsomes assessed as parent compound remaining at 1 uM after 10 mins in presence of NADPH; format: ADME, microsome; details: read-out: Stability
[2] = Metabolic stability in rat liver microsomes assessed as parent compound remaining at 1 uM after 10 mins in presence of NADPH; format: ADME, microsome; details: read-out: Stability
[3] = Metabolic stability in human liver microsomes assessed as parent compound remaining at 1 uM after 10 mins in presence of NADPH; format: ADME, microsome; details: read-out: Stability
[4] = Drug uptake in plasma of diet-induced obese C57BL/6J mouse model at 10 mg/kg administered as daily dose measured at 2 hrs post last dose on day 5; format: ADME, organism-based
[5] = Ratio of drug level in brain to plasma of diet-induced obese C57BL/6J mouse model at 10 mg/kg administered as daily dose measured at 2 hrs post last dose on day 5; format: ADME, organism-based; details: read-out: BPR
[6] = system: Mus musculus; assay: Antiobesity activity in diet induced obese C57BL/6J mouse model assessed as decrease in body weight at 10 mg/kg administered as daily dose measured every day for 5 days; format: functional, organism-based
[7] = Drug uptake in brain of diet-induced obese C57BL/6J mouse model at 10 mg/kg administered as daily dose measured at 2 hrs post last dose on day 5; format: ADME, organism-based; details: in vivo
[8] = system: Mus musculus; assay: In vivo receptor occupancy at CB1 receptor in brain of diet induced obese C57BL/6J mouse model at 10 mg/kg, po administered as daily dose for 5 days measured 10 mins post last dose in presence of [3H]-CP-55940 relative to control; format: functional
[9] = system: Mus musculus; assay: Antiobesity activity in diet induced obese C57BL/6J mouse model assessed as decrease in food intake at 10 mg/kg administered as daily dose measured every day for 5 days; format: functional, organism-based
[10] = target: Cannabinoid receptor 1 (Homo sapiens, UniProt P21554); assay: Inverse agonist activity at human CB1 receptor expressed in HEK293 cells assessed as inhibition of forskolin-induced cAMP accumulation after 30 mins by HTRF assay; format: functional, cell-based
Chain of Cannabinoid receptor 1 (P21554 whole entry): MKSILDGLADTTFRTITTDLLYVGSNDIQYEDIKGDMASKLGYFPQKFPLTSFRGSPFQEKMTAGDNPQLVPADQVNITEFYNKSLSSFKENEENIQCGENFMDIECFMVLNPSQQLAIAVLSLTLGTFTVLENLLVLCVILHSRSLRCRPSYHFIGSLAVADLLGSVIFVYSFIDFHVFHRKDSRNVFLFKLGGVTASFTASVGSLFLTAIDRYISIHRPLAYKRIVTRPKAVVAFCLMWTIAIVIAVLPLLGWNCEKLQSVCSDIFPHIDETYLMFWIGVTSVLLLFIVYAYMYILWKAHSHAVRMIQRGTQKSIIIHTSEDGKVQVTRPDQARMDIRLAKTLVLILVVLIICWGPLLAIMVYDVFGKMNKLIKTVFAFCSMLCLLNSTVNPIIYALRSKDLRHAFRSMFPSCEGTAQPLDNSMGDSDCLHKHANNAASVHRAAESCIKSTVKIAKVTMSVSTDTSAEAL

[11] = target: Cannabinoid receptor 2 (Homo sapiens, UniProt P34972); assay: Inverse agonist activity at human CB2 receptor expressed in HEK293 cells assessed as […] cAMP accumulation after 30 mins by HTRF assay; format: functional, cell-based
Chain of Cannabinoid receptor 2 (P34972 whole entry): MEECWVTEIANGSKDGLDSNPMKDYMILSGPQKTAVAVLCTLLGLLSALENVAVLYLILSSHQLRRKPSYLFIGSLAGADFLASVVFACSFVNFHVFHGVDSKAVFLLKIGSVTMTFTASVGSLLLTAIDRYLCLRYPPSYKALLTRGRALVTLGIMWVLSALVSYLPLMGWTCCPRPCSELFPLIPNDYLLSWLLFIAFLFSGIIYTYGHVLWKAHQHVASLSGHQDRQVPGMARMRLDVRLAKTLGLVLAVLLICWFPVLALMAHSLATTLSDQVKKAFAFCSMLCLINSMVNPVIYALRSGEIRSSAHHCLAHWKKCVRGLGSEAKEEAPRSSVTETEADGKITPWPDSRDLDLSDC

[12] = Drug uptake in C57BL/6J mouse plasma at 20 mg/kg, po measured after 1 hr; format: ADME, organism-based
[13] = Drug uptake in C57BL/6J mouse brain at 20 mg/kg, po measured after 4 hrs; format: ADME, organism-based; details: in vivo
[14] = Drug uptake in C57BL/6J mouse plasma at 20 mg/kg, po measured after 4 hrs; format: ADME, organism-based
[15] = Drug uptake in C57BL/6J mouse brain at 20 mg/kg, po measured after 1 hr; format: ADME, organism-based; details: in vivo, BLD = below limit of detection
[16] = Ratio of drug level in C57BL/6J mouse brain to plasma at 20 mg/kg, po measured after 4 hrs; format: ADME, organism-based; details: read-out: BPR
[17] = target: Cytochrome P450 2D6 (Homo sapiens, UniProt P10635); assay: Inhibition of CYP2D6 in human liver microsomes using dextromethorphan as substrate after 10 to 30 mins by LC/MS analysis; format: ADME
Chain of Cytochrome P450 2D6 (P10635 whole entry): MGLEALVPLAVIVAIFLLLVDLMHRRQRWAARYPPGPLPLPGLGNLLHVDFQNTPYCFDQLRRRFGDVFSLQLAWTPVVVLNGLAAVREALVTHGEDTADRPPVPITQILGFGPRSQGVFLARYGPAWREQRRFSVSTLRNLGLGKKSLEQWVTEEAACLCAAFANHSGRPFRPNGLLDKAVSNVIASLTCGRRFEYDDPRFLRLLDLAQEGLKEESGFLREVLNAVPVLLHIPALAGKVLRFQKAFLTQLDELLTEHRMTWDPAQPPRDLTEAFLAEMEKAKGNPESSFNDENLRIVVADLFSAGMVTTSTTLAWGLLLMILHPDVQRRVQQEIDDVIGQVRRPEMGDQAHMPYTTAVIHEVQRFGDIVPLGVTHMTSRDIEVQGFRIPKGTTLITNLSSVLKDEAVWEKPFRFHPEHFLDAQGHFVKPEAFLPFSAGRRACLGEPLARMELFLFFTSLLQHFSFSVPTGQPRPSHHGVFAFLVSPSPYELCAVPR

[18] = target: Cytochrome P450 2C19 (Homo sapiens, UniProt P33261); assay: Inhibition of CYP2C19 in human liver microsomes using (S)-mephenytoin as substrate after 10 to 30 mins by LC/MS analysis; format: ADME
Chain of Cytochrome P450 2C19 (P33261 whole entry): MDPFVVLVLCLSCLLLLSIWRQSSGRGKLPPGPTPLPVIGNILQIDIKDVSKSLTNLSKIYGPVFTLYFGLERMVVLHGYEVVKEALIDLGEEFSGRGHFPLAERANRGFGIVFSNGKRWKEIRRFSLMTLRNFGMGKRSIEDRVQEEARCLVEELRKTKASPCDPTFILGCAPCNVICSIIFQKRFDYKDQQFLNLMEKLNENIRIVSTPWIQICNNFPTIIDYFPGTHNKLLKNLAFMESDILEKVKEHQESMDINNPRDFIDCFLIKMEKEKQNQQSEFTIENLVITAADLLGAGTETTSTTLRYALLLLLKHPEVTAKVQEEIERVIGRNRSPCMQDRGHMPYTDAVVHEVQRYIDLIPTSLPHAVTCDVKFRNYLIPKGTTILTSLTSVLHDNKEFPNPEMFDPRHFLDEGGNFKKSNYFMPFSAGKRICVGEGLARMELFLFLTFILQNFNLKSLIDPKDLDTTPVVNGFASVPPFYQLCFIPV

[19] = target: Cytochrome P450 2C9 (Homo sapiens, UniProt P11712); assay: Inhibition of CYP2C9 in human liver microsomes using tolbutamide as substrate after 10 to 30 mins by LC/MS analysis; format: ADME
Chain of Cytochrome P450 2C9 (P11712 whole entry): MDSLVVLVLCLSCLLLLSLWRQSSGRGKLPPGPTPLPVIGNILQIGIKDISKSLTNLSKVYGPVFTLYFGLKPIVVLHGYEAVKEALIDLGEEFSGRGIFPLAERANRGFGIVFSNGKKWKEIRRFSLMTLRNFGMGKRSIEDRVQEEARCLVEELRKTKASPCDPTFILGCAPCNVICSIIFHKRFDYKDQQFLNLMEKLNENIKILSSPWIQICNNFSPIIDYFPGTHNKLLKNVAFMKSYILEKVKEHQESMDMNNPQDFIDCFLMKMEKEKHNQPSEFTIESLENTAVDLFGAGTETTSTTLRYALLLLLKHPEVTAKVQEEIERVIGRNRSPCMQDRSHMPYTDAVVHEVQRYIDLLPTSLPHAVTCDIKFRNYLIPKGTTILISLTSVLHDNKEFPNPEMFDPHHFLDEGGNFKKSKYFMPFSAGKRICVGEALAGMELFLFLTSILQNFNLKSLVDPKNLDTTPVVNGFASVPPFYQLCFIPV

[20] = target: Cytochrome P450 3A4 (Homo sapiens, UniProt P08684); assay: Inhibition of CYP3A4 in human liver microsomes using midazolam/testosterone as substrate after 10 to 30 mins by LC/MS analysis; format: ADME
Chain of Cytochrome P450 3A4 (P08684 whole entry): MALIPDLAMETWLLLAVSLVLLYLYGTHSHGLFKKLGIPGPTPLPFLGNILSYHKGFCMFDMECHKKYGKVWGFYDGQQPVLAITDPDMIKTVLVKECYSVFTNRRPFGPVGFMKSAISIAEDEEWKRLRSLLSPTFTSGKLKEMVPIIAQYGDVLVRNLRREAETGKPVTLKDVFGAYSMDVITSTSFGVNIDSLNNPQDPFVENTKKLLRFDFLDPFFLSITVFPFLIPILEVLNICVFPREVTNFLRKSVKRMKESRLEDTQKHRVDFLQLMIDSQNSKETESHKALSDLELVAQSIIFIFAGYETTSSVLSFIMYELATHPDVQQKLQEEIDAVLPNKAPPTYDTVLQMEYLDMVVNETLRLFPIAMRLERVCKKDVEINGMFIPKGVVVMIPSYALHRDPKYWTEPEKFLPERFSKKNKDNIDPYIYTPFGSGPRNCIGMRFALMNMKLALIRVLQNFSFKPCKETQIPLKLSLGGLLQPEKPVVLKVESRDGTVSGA

[21] = target: T1, Cytochrome P450 1A2 (Homo sapiens, UniProt P05177); assay: Inhibition of CYP1A2 in human liver microsomes using phenacetin as substrate after 10 to 30 mins by LC/MS analysis; format: ADME
T1 sequence (P05177 whole entry): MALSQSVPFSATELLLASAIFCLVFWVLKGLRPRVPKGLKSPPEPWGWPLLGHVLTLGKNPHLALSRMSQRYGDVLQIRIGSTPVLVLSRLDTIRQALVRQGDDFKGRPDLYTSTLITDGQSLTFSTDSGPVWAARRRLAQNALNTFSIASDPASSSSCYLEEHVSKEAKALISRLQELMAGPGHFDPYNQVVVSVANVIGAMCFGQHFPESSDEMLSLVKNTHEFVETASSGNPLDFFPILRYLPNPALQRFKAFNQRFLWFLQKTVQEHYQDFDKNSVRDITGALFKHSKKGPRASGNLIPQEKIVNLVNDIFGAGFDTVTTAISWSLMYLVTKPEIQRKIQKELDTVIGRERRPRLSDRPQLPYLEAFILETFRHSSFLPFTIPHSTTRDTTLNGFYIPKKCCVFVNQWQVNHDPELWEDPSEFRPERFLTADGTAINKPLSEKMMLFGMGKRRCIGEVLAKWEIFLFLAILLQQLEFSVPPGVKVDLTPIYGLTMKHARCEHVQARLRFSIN

SMILES: O=c1cc(N[C@@H]2CCN(S(=O)(=O)C(F)(F)F)C2)c2cc(C(c3ccc(Cl)cc3)c3nccs3)ccc2[nH]1 (stereo not given in full)
- remaining at 10 min, 1 µM [1]: 19.1%
- remaining at 10 min, 1 µM [2]: 27.9%
- remaining at 10 min, 1 µM [3]: 20.4%

SMILES: Cc1c(C(=O)NN2CCCCC2)nn(-c2ccc(Cl)cc2Cl)c1-c1ccc(Cl)cc1 [RIMONABANT]
- concentration at 2 h [4]: 1500 nM
- Kp at 2 h [5]: 0.98
- Activity [6]: Active
- Drug uptake [7]: 1.46 nmol/g
- Occ [8]: 81.7%
- Activity [9]: Active

SMILES: O=c1cc(/C=C/c2ccccc2)c2cc(C(O)c3ccc(Cl)cc3)ccc2[nH]1 (stereo not given)
- EC50 [10]: > 10000 nM

SMILES: O=c1cc(NC2CCN(S(=O)(=O)C(F)(F)F)CC2)c2cc(Cc3ccc(Cl)cc3)ccc2[nH]1
- EC50 [10]: 260 nM

SMILES: O=S(=O)(N1CCC(Nc2ccnc3c(O)cc(C(c4ccc(Cl)cc4)c4ccc(Cl)cc4)cc23)CC1)C(F)(F)F
- EC50 [10]: 399 nM

SMILES: COc1ccc(C(c2ccc(Cl)cc2)c2ccc3[nH]c(=O)cc(NC4CCN(S(=O)(=O)C(F)(F)F)CC4)c3c2)cc1 (stereo not given)
- EC50 [10]: 8.4 nM

SMILES: O=C(O)COc1cc(C(c2ccc(Cl)cc2)c2ccc(Cl)cc2)cc2c(NC3CCN(S(=O)(=O)C(F)(F)F)CC3)ccnc12
- EC50 [11]: > 10000 nM

SMILES: O=C(Nc1cc(=O)[nH]c2ccc(C(c3ccc(Cl)cc3)n3ccnc3)cc12)c1ccccc1 (stereo not given)
- EC50 [10]: > 10000 nM

SMILES: O=C(O)c1cccc(S(=O)(=O)N2CCC(Nc3cc(=O)[nH]c4ccc(C(c5ccc(Cl)cc5)c5ccc(Cl)cc5)cc34)CC2)c1
- EC50 [11]: 8690 nM

SMILES: O=C(O)CCCCCOc1cc(NC2CCN(S(=O)(=O)C(F)(F)F)CC2)c2cc(C(c3ccc(Cl)cc3)c3ccc(Cl)cc3)ccc2n1
- EC50 [11]: 61 nM

SMILES: O=c1cc(CCc2ccccc2)c2cc(C(c3ccc(Cl)cc3)n3ccnc3)ccc2[nH]1 (stereo not given)
- EC50 [10]: > 10000 nM

SMILES: O=c1cc(NC2CCN(S(=O)(=O)C(F)(F)F)CC2)c2cc(C(c3ccc(Cl)cc3)c3nccs3)ccc2[nH]1 (stereo not given)
- remaining at 10 min, 1 µM [1]: 47.8%
- IC50 [17]: > 10000 nM
- remaining at 10 min, 1 µM [2]: 60.1%
- IC50 [18]: 8000 nM
- IC50 [19]: > 10000 nM
- IC50 [20]: > 10000 nM
- IC50 [21]: > 10000 nM
- remaining at 10 min, 1 µM [3]: 62.2%

SMILES: COCCOc1cc(NC2CCN(S(=O)(=O)C(F)(F)F)CC2)c2cc(C(c3ccc(Cl)cc3)c3ccc(Cl)cc3)ccc2n1
- EC50 [10]: 22 nM

SMILES: COCCCc1cc(C(c2ccc(Cl)cc2)c2ccc(Cl)cc2)cc2c(NC3CCN(S(=O)(=O)C(F)(F)F)CC3)cc(=O)[nH]c12
- EC50 [11]: 61 nM

SMILES: COCCOCCOCCOCCOCCOCCOCCOc1cc(NC2CCN(S(=O)(=O)C(F)(F)F)CC2)c2cc(C(c3ccc(Cl)cc3)c3ccc(Cl)cc3)ccc2n1
- EC50 [10]: 457 nM
- EC50 [11]: 5900 nM

Second part, the compound after the results:

- EC50 [10]: 1150 nM
SMILES: O=c1cc(OCc2ccccc2)c2cc(C(c3ccc(Cl)cc3)n3ccnc3)ccc2[nH]1 (stereo not given)

- EC50 [11]: > 10000 nM
SMILES: CS(=O)(=O)N1CCC(Nc2cc(=O)[nH]c3ccc(C(c4ccc(Cl)cc4)c4ccc(Cl)cc4)cc23)CC1

- remaining at 10 min, 1 µM [1]: 57%
- concentration at 1 h [12]: 4160 nM
- remaining at 10 min, 1 µM [2]: 69%
- Drug uptake [13]: 0.107 nmol/g
- concentration at 4 h [14]: 2890 nM
- Drug uptake [15]: Bld
- remaining at 10 min, 1 µM [3]: 43%
- Kp at 4 h [16]: 0.037
SMILES: O=c1cc(NC2CCN(c3ncccn3)CC2)c2cc(C(c3ccc(Cl)cc3)c3ccc(Cl)cc3)ccc2[nH]1

- EC50 [10]: 66 nM
SMILES: O=c1cc([C@@H]2C[C@@H]2c2ccccc2)c2cc(C(c3ccc(Cl)cc3)n3ccnc3)ccc2[nH]1 (stereo not given in full)

- EC50 [10]: 113 nM
SMILES: O=c1cc(Cc2ccc(OC(F)(F)F)cc2)c2cc(C(c3ccc(Cl)cc3)n3ccnc3)ccc2[nH]1 (stereo not given)

- EC50 [10]: 165 nM
SMILES: O=c1cc(/C=C/c2ccccc2)c2cc(C(c3ccc(Cl)cc3)n3ccnc3)ccc2[nH]1 (stereo not given)

- EC50 [10]: 5 nM
SMILES: O=c1cc(NC2CCN(S(=O)(=O)C(F)(F)F)CC2)c2cc(C(c3ccc(Cl)cc3)n3ccnc3)ccc2[nH]1 (stereo not given)

- EC50 [10]: 13.5 nM
SMILES: CCOC(=O)CC(=O)N1CCC(Nc2cc(=O)[nH]c3ccc(C(c4ccc(Cl)cc4)c4ccc(Cl)cc4)cc23)CC1

- IC50 [17]: > 10000 nM
- IC50 [18]: > 10000 nM
- IC50 [19]: > 10000 nM
- IC50 [20]: > 10000 nM
- IC50 [21]: > 10000 nM
SMILES: O=c1cc(/C=C/c2ccc(C(F)(F)F)cc2)c2cc(C(c3ccc(Cl)cc3)c3nccs3)ccc2[nH]1 (stereo not given)

Source: ChEMBL document CHEMBL4270663, “6-Benzhydryl-4-amino-quinolin-2-ones as Potent Cannabinoid Type 1 (CB1) Receptor Inverse Agonists and Chemical Modifications for Peripheral Selectivity” (J Med Chem, 2018)
